Laboratory results: patent US20170072007A1, “PHANTOM PHENOMENA TREATMENT” (OTOLANUM AG, priority 2005, published 2017)
Entries after “also recorded” stand apart in the source; their conditions may differ. Read-outs that look alike come from different tables or passages of the source.

Assays:
[1] = test system: Arc expression in auditory cortex; experiment: Salicylate-induced acute tinnitus: effect of test substance on gene expression in the auditory cortex (RT-PCR); format: in vivo, rat; conditions: systemic 0.5 mg/kg, 2.5 hours after 350 mg/kg salicylate, n=12, p<0.05
Procedure: Rnase H reverse transcriptase according to the Invitrogen protocol.
Two and half hours after the induction of acute tinnitus by injection of 350 mg/kg salicylate, the animals received systemic administration of midazolam (Dormicum, Roche, Grenzach-Wyhlen, Germany) (0.5 mg/kg of body weight), and gene expression was investigated after removal of organs with the aid of RT-PCR. […] Statistical analysis was carried out with Student's T test; *=p<0.05.
In a further experiment corresponding to the above, a GABA receptor agonist was administered, under conditions which were otherwise identical, not systemically but locally into the niche of the round window.

[2] = test system: BDNF exon IV expression in cochlear neurons; experiment: Salicylate-induced acute tinnitus: effect of test substance on BDNF/c-fos expression in cochlear neurons (RT-PCR); format: in vivo, rat
[3] = before and 20 hours after local salicylate, 5 μl, 70 mg/kg, n=5
Source text: Adult female Wistar rats weighing between 280 and 300 grams were used for the experiments. The treatment and handling of these animals took place in conformity with the institutional guidelines of Tübingen University, Tierforschungsanstalt.
(§1) The rats were anesthetized intraperitoneally by the method of Guitton, M. J. et al. (2003), Salicylate induces tinnitus through activation of cochlear NMDA receptors, J. Neurosci. 23, pages 3944 to 3952, in order to place a so-called gel foam (Gelita Tampon; B. Braun Medical, Melsungen, Germany) over the round window of both ears. The gel foam was impregnated as indicated with salicylate, which was diluted in artificial perilymph solution (70 mg/ml), or with the corresponding volume of artificial perilymph alone. The gel foam was in the niche of the round window as described; Guitton J. et al. (loc. cit.). The salicylate was locally administered thus for 20 hours. After this time, the animals were sacrificed and the cochlea and the auditory cortex were removed.
The anesthesia of the animals and the ABR screening was carried out as described previously; cf. Knipper, M. et al. (2000), loc. cit.; Schimmang, T. et al. (2003), Lack of BDNF and trkB signalling in the postnatal cochlea leads to a spatial reshaping of innervation along the tonotopic axis and hearing loss, Development 130, pages 4741 to 4750. […]

[4] = test system: c-fos, BDNF exon-III, BDNF exon-IV and Arc in auditory cortex
Procedure: Total RNA was isolated using the total RNeasy kit from Qiagen both from the cochlea and from brain tissue and was treated with DNase (Ambion) in order to remove DNA contaminants. The RNA was then purified and the concentration was determined by spectrometric measurements. Reverse transcription of the brain tissue was carried out in a reaction volume of 20 μl using 1 μg of total RNA as template and [sequence] II Rnase H reverse transcriptase according to the Invitrogen protocol. Because of the limited amount of RNA in the cochlear tissues, Qiagen Senscript reverse transcriptase was used, as described in the Qiagen protocol, using 50 ng of total RNA as template. The number of cycles and the annealing temperature for the PCR was optimized so that the signals obtained for BDNF, c-fos and glyceraldehyde-3-phosphate dehydrogenase (GAPDH) were not saturated.
The PCR was carried out in a final reaction volume of 25 μl, using both primers for GAPDH and the activity-dependent genes simultaneously. In this duplex PCR reaction, a housekeeping gene in the same PCR reaction represents an internal control, so that the intensity of the activity-dependent gene can be compared unambiguously with the control and the treated samples. PCR ready-to-go beads from Amersham Pharmacia were used in order to ensure a standardization of the PCR conditions and to reduce contamination during pipetting. Finally, the PCR products were analyzed in a 2% agarose gel which was visualized using an ethidium bromide stain and densitometric analysis using an Alpha Imager 2200 from Biometra. The intensity of the amplified activity-dependent gene was normalized for each reaction to the level of the coamplified GAPDH. The amplification conditions for arc, BDNF, c-fos and GAPDH were for the initial denaturation phase of 94° C. for three minutes, 30 cycles each of one minute of denaturation (94° C.), one minute of annealing (54° C.), 1.5 minutes of extension (72° C.) and a final extension phase of ten minutes at 72° C.
The auditory cortices investigated were obtained from animals in which the cochlea were investigated for the dose-dependent effect of salicylate, the mRNA was isolated and an RT-PCR was carried out as described under Material and Methods.

[5] = test system: c-fos, BDNF exon-III and BDNF exon IV transcripts in cochlear tissue
Procedure: as §1

[6] = test system: c-fos, BDNF exon-III and BDNF exon IV in cochlear spiral ganglia; conditions: local 5 μl 70 mg/ml and systemic 350 mg/kg, versus artificial perilymph
Procedure: Carbon dioxide was used for deep anesthesia of the animals, which were then decapitated. The cochleae were isolated and prepared as described previously; cf. […] Briefly, the cochleae were fixed by immersion in 2% paraformaldehyde, 125 mM sucrose in 100 mM phosphate-buffered saline (PBS), pH 7.4, for two hours and, following the fixation, decalcified in rapid bond decalcifier (#904687, Eurobio, Fisher-Scientific, 61130 Nidderau, Germany) for 45 minutes, subsequently followed by incubation in 25% sucrose, 1 mM protease inhibitor (Pefabloc, Roche) in Hanks buffered saline overnight. Following the overnight incubation, the cochleae were embedded in O.C.T. compound (Miles Laboratories, Elkhart, Ind., USA). The tissues were then cryosectioned with a thickness of 10 μm for the in situ hybridization, stored on SuperFrost*/plus slides and stored at −20° C. before use.
Genomic DNA from rat liver tissue was isolated using the Easy DNA kit from Invitrogen in accordance with the manufacturer's information. A polymerase chain reaction was carried out in order to amplify all four non-coding 5′ exons of the BDNF gene.
In the PCR reaction, the genomic DNA was first denatured at 94° C. for four minutes, followed by 30 cycles of one minute at 94° C., one minute at 55° C. and one minute at 72° C. The extension reaction was carried out at 70° C. for 10 minutes. […]

[7] = increasing amounts of salicylate locally into round window niche, n=3

Cc1ncc2n1-c1ccc(Cl)cc1C(c1ccccc1F)=NC2 [midazolam]
effect of salicylate on the expression of Arc in the auditory cortex [1]: significant reduction
effect of salicylate on the expression of BDNF exon-IV in cochlear neurons ([2]; systemic 0.5 mg/kg, 2.5 hours after 350 mg/kg salicylate, n=7, p<0.05): significant reduction; also recorded: significantly reduced; also recorded: inhibited
effect on salicylate-changed expression of c-fos ([2]; systemic 0.5 mg/kg, 2.5 hours after 350 mg/kg salicylate, n=7 to 12): remains incapable of being influenced

COC(=O)C1=C(C)NC(C)=C(C(=O)OC(C)C)C1c1cccc2nonc12 (centres unmarked) [isradipine]
salicylate-induced upregulation of BDNF (exon IV) in cochlear neurons ([2]; 10 μl of 10 mM solution locally at round window 22 hours before tissue removal, salicylate 350 mg/kg systemic 3 hours before): inhibited

O=C(O)c1ccccc1O [salicylate]
frequency-specific ABR screening [3]: no loss of hearing
decrease in the expression of BDNF exon-IV (densitometric analysis) ([4]; auditory cortex, n=8, p<0.05): 49±12%
decrease in the expression of c-fos (densitometric analysis) ([4]; auditory cortex, n=8, p<0.05): 69±11%
expression of Arc in the auditory cortex [4, 7]: decreased
expression of c-fos, BDNF exon-III and BDNF exon-IV in the auditory cortex ([4]; local administration, all dosages of salicylate): reduction
expression of Arc in the primary auditory cortex ([4]; systemic 350 mg/kg salicylate): decrease
increase in the expression of BDNF exon-IV (densitometric analysis) ([5]; cochlea, n=8, p<0.05): 49±12%
increase in the expression of c-fos (densitometric analysis) ([5]; cochlea, n=8, p<0.05): 69±11%
c-fos expression in cochlear tissue ([5]; gel foam local, 5 μl, 70 mg/ml, found at 20 hours, not at three hours): significant upregulation
expression of the BDNF exon-IV transcript in cochlear neurons [5, 7]: increased
expression of BDNF exon-IV and c-fos in cochlear neurons ([5]; systemic 350 mg/kg salicylate): elevated expression
c-fos expression in cochlear tissue ([5]; systemic i.p. 350 mg/kg of body weight, after three hours): upregulation
hybridization signals for c-fos, BDNF exon-III and BDNF exon IV in the middle basal cochlear turn [6]: significantly increased
